Test results published in patent US20150105252A1, “SUBSTITUTED PYRAZOLES AS HERBICIDES” (E I DU PONT DE NEMOURS AND COMPANY, priority 2013, published 2015).

What was measured:
corn = assay: Test A postemergence; type: in vivo, Zea mays
Summary of the method: (§1)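 Pre- and postemergence greenhouse test; loam+sand; cpd in non-phytotox. solvent/surfactant; post at 1–2 leaf, 2–10 cm; visual score ~10 d, 0 = none, 100 = complete control.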

foxtail, giant [1] = assay: Test C postemergence; type: in vivo, Setaria faberii; conditions: for Plant response rating (scale of 0 to 100 where 0 is no effect and 100 is complete control), Foxtail, Giant: Postemergence, 31 g ai/ha, visually evaluated after 13 to 15 days; for Foxtail, Giant plant response rating / Plant response rating, Foxtail, Giant: postemergence; for Foxtail, Giant plant response rating: 62 g ai/ha, scale 0 to 100
Summary of the method: (§2)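 Herbicidal effect is expressed as percent visual control (0–100) judged against untreated plants 13 to 15 days after treatment in the greenhouse. Preemergence pots contained seeds in a soil–sand blend; postemergence plants, 2–18 cm tall, grew in peat-based planting medium.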

soybean = assay: Test C postemergence; type: in vivo, Glycine max; conditions: for Soybean plant response rating / Plant response rating, Soybean: postemergence
Summary of the method: as §2

pigweed [2] = assay: Test C postemergence; type: in vivo, Amaranthus retroflexus; conditions: for Pigweed plant response rating / Plant response rating, Pigweed: postemergence; for Pigweed plant response rating: 62 g ai/ha, scale 0 to 100
Summary of the method: as §2

wheat = assay: Test C postemergence; type: in vivo, Triticum aestivum; conditions: for Wheat plant response rating / Plant response rating, Wheat: postemergence; for Wheat plant response rating: scale 0 to 100
Summary of the method: as §2

foxtail, giant [3] = assay: Test A preemergence; type: in vivo, Setaria faberii; conditions: preemergence
Summary of the method: as §1

blackgrass [4] = assay: Test C postemergence; type: in vivo, Alopecurus myosuroides; conditions: for Plant response rating (scale of 0 to 100 where 0 is no effect and 100 is complete control), Blackgrass: Postemergence, 31 g ai/ha, visually evaluated after 13 to 15 days; for Blackgrass plant response rating / Plant response rating, Blackgrass: postemergence; for Blackgrass plant response rating: 62 g ai/ha, scale 0 to 100
Summary of the method: as §2

barnyardgrass = assay: Test C postemergence; type: in vivo, Echinochloa crus-galli; conditions: for Plant response rating (scale of 0 to 100 where 0 is no effect and 100 is complete control), Barnyardgrass: Postemergence, 31 g ai/ha, visually evaluated after 13 to 15 days; for Barnyardgrass plant response rating / Plant response rating, Barnyardgrass: postemergence; for Barnyardgrass plant response rating: 62 g ai/ha, scale 0 to 100
Summary of the method: as §2

blackgrass [5] = assay: Test C preemergence; type: in vivo, Alopecurus myosuroides; conditions: preemergence; for Plant response rating, Blackgrass: 125 g ai/ha, scale 0 to 100, 0 = no effect, 100 = complete control
Summary of the method: as §2

johnsongrass = assay: Test C preemergence; type: in vivo, Sorghum halepense; conditions: preemergence; for Plant response rating, Johnsongrass: 125 g ai/ha, scale 0 to 100, 0 = no effect, 100 = complete control
Summary of the method: as §2

pigweed [6] = assay: Test C preemergence; type: in vivo, Amaranthus retroflexus; conditions: preemergence; for Plant response rating, Pigweed: 125 g ai/ha, scale 0 to 100, 0 = no effect, 100 = complete control
Summary of the method: as §2

galium = assay: Test C preemergence; type: in vivo, Galium aparine; conditions: preemergence; for Plant response rating, Galium: 125 g ai/ha, scale 0 to 100, 0 = no effect, 100 = complete control
Summary of the method: as §2

ragweed = assay: Test C postemergence; type: in vivo, Ambrosia elation
Summary of the method: as §2

pigweed [7] = assay: Test A preemergence; type: in vivo, Amaranthus retroflexus; conditions: preemergence
Summary of the method: as §1

[8] = Postemergence, 500 g ai/ha, 0 to 100 scale (0 no effect, 100 complete control)
[9] = postemergence, 125 g ai/ha, about 10 days, visual rating on 0 to 100 scale (0 no effect, 100 complete control)
[10] = 250 g ai/ha, scale 0 to 100 (0 no effect, 100 complete control)
[11] = 125 g ai/ha, scale 0 to 100, 0 no effect, 100 complete control
[12] = Postemergence, 31 g ai/ha, visually evaluated after 13 to 15 days
[13] = 125 g ai/ha, visual injury, 0 to 100 scale, approx. 10 days
[14] = 500 g ai/ha, visual injury after approx. 10 days, 0 to 100 scale (0 no effect, 100 complete control)
[15] = 31 g ai/ha, visual rating, scale 0 to 100 (0 no effect, 100 complete control), 13 to 15 days
[16] = 62 g ai/ha, scale 0 to 100 (0 no effect, 100 complete control), 13 to 15 days
[17] = 250 g ai/ha, scale 0 to 100, 0 is no effect, 100 is complete control
[18] = postemergence, 250 g ai/ha, scale 0 to 100 (0 no effect, 100 complete control)
[19] = postemergence, 125 g ai/ha, scale 0 to 100, 0 no effect, 100 complete control
[20] = 125 g ai/ha, visual injury approx. 10 days after treatment

## CCCNC(=O)c1cc(OCC)n(Cc2ccnc(OC(F)F)c2)n1 [Compound 136]
corn; [8]
  Corn plant response rating: 100
corn; [9]
  Corn plant response rating: 60
foxtail, giant [1]
  Plant response rating (scale of 0 to 100 where 0 is no effect and 100 is complete control), Foxtail, Giant: 30
  Foxtail, Giant plant response rating: 30
foxtail, giant [1]; [10]
  Plant response rating, Foxtail, Giant: 70
foxtail, giant [1]; [11]
  Plant response rating, Foxtail, Giant: 40
soybean; [12]
  Plant response rating (scale of 0 to 100 where 0 is no effect and 100 is complete control), Soybean: 90
soybean; 62 g ai/ha, scale 0 to 100
  Soybean plant response rating: 70
soybean; [10]
  Plant response rating, Soybean: 95
soybean; [11]
  Plant response rating, Soybean: 95
Pigweed [2]; [12]
  Plant response rating (scale of 0 to 100 where 0 is no effect and 100 is complete control), Pigweed: 40
Pigweed [2]
  Pigweed plant response rating: 65
Pigweed [2]; [10]
  Plant response rating, Pigweed: 80
Pigweed [2]; [11]
  Plant response rating, Pigweed: 70
wheat; [12]
  Plant response rating (scale of 0 to 100 where 0 is no effect and 100 is complete control), Wheat: 5
wheat; 62 g ai/ha
  Wheat plant response rating: 5
wheat; [10]
  Plant response rating, Wheat: 15
wheat; [11]
  Plant response rating, Wheat: 10
foxtail, giant [3]; [13]
  Foxtail, Giant plant response rating: 100
foxtail, giant [3]; [14]
  Foxtail, Giant plant response rating: 100
Blackgrass [4]
  Plant response rating (scale of 0 to 100 where 0 is no effect and 100 is complete control), Blackgrass: 5
  Blackgrass plant response rating: 10
Blackgrass [4]; [10]
  Plant response rating, Blackgrass: 40
Blackgrass [4]; [11]
  Plant response rating, Blackgrass: 15
barnyardgrass
  Plant response rating (scale of 0 to 100 where 0 is no effect and 100 is complete control), Barnyardgrass: 5
  Barnyardgrass plant response rating: 5
barnyardgrass; [10]
  Plant response rating, Barnyardgrass: 45
barnyardgrass; [11]
  Plant response rating, Barnyardgrass: 5
Blackgrass [5]; [15]
  Blackgrass plant response rating: 85
Blackgrass [5]; [16]
  Blackgrass plant response rating: 90
Blackgrass [5]; 13 to 15 days
  Plant response rating, Blackgrass: 90
Blackgrass [5]; [17]
  Blackgrass plant response rating: 90
johnsongrass; [15]
  Johnsongrass plant response rating: 60
johnsongrass; [16]
  Johnsongrass plant response rating: 85
johnsongrass; 13 to 15 days
  Plant response rating, Johnsongrass: 98
johnsongrass; [17]
  Johnsongrass plant response rating: 100
Pigweed [6]; [15]
  Pigweed plant response rating: 70
Pigweed [6]; [16]
  Pigweed plant response rating: 70
Pigweed [6]; 13 to 15 days
  Plant response rating, Pigweed: 60
Pigweed [6]; [17]
  Pigweed plant response rating: 100
galium; [15]
  Galium plant response rating: 85
galium; [16]
  Galium plant response rating: 100
galium; 13 to 15 days
  Plant response rating, Galium: 100
galium; [17]
  Galium plant response rating: 100
ragweed; [12]
  Plant response rating (scale of 0 to 100 where 0 is no effect and 100 is complete control), Ragweed: 15
ragweed; postemergence, 62 g ai/ha, scale 0 to 100
  Ragweed plant response rating: 35
ragweed; [18]
  Plant response rating, Ragweed: 70
ragweed; [19]
  Plant response rating, Ragweed: 40
Pigweed [7]; [13]
  Pigweed plant response rating: 100
Pigweed [7]; [14]
  Pigweed plant response rating: 100

## CCCc1cc(C(=O)NC2CC2)nn1Cc1ccnc(OC(F)F)c1 [Compound 205]
corn; [8]
  Corn plant response rating: 100
corn; [9]
  Corn plant response rating: 70
foxtail, giant [1]
  Plant response rating (scale of 0 to 100 where 0 is no effect and 100 is complete control), Foxtail, Giant: 20
  Foxtail, Giant plant response rating: 35
foxtail, giant [1]; [10]
  Plant response rating, Foxtail, Giant: 65
foxtail, giant [1]; [11]
  Plant response rating, Foxtail, Giant: 70
soybean; [10]
  Plant response rating, Soybean: 90
soybean; [11]
  Soybean plant response rating: 70
Pigweed [2]
  Pigweed plant response rating: 85
Pigweed [2]; [10]
  Plant response rating, Pigweed: 100
Pigweed [2]; [11]
  Plant response rating, Pigweed: 85
wheat; [10]
  Plant response rating, Wheat: 5
wheat
  Wheat plant response rating: 5
foxtail, giant [3]; [20]
  Foxtail, Giant plant response rating (0 to 100 scale): 100
foxtail, giant [3]; [14]
  Foxtail, Giant plant response rating: 100
Blackgrass [4]
  Plant response rating (scale of 0 to 100 where 0 is no effect and 100 is complete control), Blackgrass: 5
  Blackgrass plant response rating: 5
Blackgrass [4]; [10]
  Plant response rating, Blackgrass: 30
Blackgrass [4]; [11]
  Plant response rating, Blackgrass: 5
barnyardgrass
  Plant response rating (scale of 0 to 100 where 0 is no effect and 100 is complete control), Barnyardgrass: 10
  Barnyardgrass plant response rating: 10
barnyardgrass; [10]
  Plant response rating, Barnyardgrass: 50
barnyardgrass; [11]
  Plant response rating, Barnyardgrass: 15
Blackgrass [5]; [15]
  Blackgrass plant response rating: 80
Blackgrass [5]; [16]
  Blackgrass plant response rating: 95
Blackgrass [5]; 13 to 15 days
  Plant response rating, Blackgrass: 95
Blackgrass [5]; [17]
  Blackgrass plant response rating: 100
johnsongrass; [15]
  Johnsongrass plant response rating: 70
johnsongrass; [16]
  Johnsongrass plant response rating: 80
johnsongrass; 13 to 15 days
  Plant response rating, Johnsongrass: 90
johnsongrass; [17]
  Johnsongrass plant response rating: 100
Pigweed [6]; [15]
  Pigweed plant response rating: 95
Pigweed [6]; [16]
  Pigweed plant response rating: 100
Pigweed [6]; 13 to 15 days
  Plant response rating, Pigweed: 100
Pigweed [6]; [17]
  Pigweed plant response rating: 100
galium; [15]
  Galium plant response rating: 100
galium; [16]
  Galium plant response rating: 90
galium; 13 to 15 days
  Plant response rating, Galium: 95
galium; [17]
  Galium plant response rating: 100
ragweed; [18]
  Plant response rating, Ragweed: 80
ragweed; [19]
  Plant response rating, Ragweed: 60
Pigweed [7]; [20]
  Pigweed plant response rating (0 to 100 scale): 100
